Tests used:
Test in all cases: kinase panel
MLCK(h) = format: biochemical, human; details: 1 μM
Description: We profiled three compounds from the series across the kinome (Table S1).
Ta b l e S1. The % inhibition of compounds 4, 5r [SU1261], and 6g [SU1349] against a
panel of kinase enzymes. We proϐiled three compounds from the series across 231
kinases. For SU1349, given its structural similarity with SU1261, we selected 98 from the
Tested kinase % inhibiƟon

VRK2(h) = VRK2(h) (Homo sapiens, UniProt Q86Y07); format: biochemical
Outline: (§1)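 Three compounds in the series were profiled against a panel of 231 kinases, and activity is reported as % inhibition. For one compound, a subset of 98 kinases was selected on the basis of its structural similarity to another series member.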

TSSK2(h) = TSSK2(h) (Homo sapiens, UniProt Q96PF2); format: biochemical
Outline: as §1

SAPK2a(h) = SAPK2a(h) (Homo sapiens, UniProt Q16539); format: biochemical
Sequence of SAPK2a(h) (Q16539 whole entry): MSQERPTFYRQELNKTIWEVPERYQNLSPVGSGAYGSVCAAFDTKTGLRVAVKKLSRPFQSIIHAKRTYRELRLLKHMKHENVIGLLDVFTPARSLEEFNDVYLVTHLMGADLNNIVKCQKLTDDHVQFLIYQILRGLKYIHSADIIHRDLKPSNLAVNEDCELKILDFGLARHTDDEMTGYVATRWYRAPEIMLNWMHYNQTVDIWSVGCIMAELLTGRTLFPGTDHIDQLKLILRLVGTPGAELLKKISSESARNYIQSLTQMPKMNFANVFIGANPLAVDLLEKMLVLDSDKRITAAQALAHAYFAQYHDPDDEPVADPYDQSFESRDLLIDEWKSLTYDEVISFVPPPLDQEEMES
Outline: as §1

ULK3(h) = ULK3(h) (Homo sapiens, UniProt Q6PHR2); format: biochemical
Outline: as §1

WNK2(h) = WNK2(h) (Homo sapiens, UniProt Q9Y3S1); format: biochemical
Outline: as §1

Blk(h) = Blk(h) (Homo sapiens, UniProt P51451); format: biochemical
Outline: as §1

MSSK1(h) = MSSK1(h) (Homo sapiens, UniProt Q9UPE1); format: biochemical
Outline: as §1

Hck(h) = Hck(h) (Homo sapiens, UniProt P08631); format: biochemical
Sequence of Hck(h) (P08631 whole entry): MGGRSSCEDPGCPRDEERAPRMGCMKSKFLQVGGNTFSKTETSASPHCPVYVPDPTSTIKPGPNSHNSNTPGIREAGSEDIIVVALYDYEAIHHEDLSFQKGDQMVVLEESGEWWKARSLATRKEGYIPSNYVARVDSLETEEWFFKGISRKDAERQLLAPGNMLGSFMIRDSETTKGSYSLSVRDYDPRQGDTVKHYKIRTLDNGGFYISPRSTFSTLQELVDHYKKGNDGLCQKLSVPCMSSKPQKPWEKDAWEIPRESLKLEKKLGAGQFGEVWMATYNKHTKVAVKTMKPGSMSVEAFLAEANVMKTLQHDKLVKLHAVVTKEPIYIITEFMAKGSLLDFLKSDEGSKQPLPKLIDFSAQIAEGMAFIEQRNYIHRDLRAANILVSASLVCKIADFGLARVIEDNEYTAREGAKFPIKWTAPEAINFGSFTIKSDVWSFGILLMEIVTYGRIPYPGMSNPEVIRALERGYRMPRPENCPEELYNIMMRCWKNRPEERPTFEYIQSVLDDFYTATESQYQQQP
Outline: as §1

CK1γ3(h) = CK1γ3(h) (Homo sapiens, UniProt Q9Y6M4); format: biochemical
Outline: as §1

ASK1(h) = ASK1(h) (Homo sapiens, UniProt Q99683); format: biochemical
Outline: as §1

GRK5(h) = GRK5(h) (Homo sapiens, UniProt P34947); format: biochemical
Outline: as §1

PKG1α(h) = PKG1α(h) (Homo sapiens, UniProt Q13976); format: biochemical
Outline: as §1

Rse(h) = Rse(h) (Homo sapiens, UniProt Q06418); format: biochemical
Sequence of Rse(h) (Q06418 41-890): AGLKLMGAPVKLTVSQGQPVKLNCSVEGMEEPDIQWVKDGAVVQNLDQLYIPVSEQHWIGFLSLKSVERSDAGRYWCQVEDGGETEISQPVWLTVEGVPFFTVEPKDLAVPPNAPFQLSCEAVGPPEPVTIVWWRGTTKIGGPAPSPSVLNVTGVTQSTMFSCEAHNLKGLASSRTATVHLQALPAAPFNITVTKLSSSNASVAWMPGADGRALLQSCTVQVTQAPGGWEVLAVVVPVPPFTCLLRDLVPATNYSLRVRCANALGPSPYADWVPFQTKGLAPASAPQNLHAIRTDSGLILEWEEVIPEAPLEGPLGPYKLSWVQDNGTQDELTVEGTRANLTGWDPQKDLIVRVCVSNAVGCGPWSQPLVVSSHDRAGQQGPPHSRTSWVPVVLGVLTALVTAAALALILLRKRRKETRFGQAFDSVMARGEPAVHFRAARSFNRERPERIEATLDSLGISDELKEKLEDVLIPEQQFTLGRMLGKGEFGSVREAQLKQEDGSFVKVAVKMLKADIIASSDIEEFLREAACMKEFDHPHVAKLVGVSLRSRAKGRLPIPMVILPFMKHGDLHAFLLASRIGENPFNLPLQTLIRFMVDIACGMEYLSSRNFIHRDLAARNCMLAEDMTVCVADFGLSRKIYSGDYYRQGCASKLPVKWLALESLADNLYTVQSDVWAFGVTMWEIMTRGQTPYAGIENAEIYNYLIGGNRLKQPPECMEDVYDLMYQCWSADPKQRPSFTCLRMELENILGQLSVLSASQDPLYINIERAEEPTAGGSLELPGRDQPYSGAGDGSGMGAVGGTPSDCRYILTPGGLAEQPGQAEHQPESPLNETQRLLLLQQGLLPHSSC
Outline: as §1

NLK(h) = NLK(h) (Homo sapiens, UniProt Q9UBE8); format: biochemical
Outline: as §1

ULK2(h) = ULK2(h) (Homo sapiens, UniProt Q8IYT8); format: biochemical
Outline: as §1

MLK1(h) = MLK1(h) (Homo sapiens, UniProt P80192); format: biochemical
Outline: as §1

PhKγ2(h) = PhKγ2(h) (Homo sapiens, UniProt P15735); format: biochemical
Outline: as §1

MAPKAP-K3(h) = MAPKAP-K3(h) (Homo sapiens, UniProt Q16644); format: biochemical
Sequence of MAPKAP-K3(h) (Q16644 whole entry): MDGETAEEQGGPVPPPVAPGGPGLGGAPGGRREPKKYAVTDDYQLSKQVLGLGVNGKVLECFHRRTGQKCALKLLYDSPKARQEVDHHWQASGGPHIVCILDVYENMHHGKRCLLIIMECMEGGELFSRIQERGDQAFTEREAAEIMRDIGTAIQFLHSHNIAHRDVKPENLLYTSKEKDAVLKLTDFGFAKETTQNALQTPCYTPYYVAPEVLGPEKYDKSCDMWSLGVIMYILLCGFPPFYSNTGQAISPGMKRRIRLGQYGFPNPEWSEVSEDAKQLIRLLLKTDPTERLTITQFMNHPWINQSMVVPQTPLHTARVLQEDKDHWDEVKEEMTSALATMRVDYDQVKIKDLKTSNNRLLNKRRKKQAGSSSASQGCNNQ
Outline: as §1

Pim-2(h) = Pim-2(h) (Homo sapiens, UniProt Q9P1W9); format: biochemical
Outline: as §1

ALK4(h) = ALK4(h) (Homo sapiens, UniProt P36896); format: biochemical
Outline: as §1

Txk(h) = Txk(h) (Homo sapiens, UniProt P42681); format: biochemical
Sequence of Txk(h) (P42681 whole entry): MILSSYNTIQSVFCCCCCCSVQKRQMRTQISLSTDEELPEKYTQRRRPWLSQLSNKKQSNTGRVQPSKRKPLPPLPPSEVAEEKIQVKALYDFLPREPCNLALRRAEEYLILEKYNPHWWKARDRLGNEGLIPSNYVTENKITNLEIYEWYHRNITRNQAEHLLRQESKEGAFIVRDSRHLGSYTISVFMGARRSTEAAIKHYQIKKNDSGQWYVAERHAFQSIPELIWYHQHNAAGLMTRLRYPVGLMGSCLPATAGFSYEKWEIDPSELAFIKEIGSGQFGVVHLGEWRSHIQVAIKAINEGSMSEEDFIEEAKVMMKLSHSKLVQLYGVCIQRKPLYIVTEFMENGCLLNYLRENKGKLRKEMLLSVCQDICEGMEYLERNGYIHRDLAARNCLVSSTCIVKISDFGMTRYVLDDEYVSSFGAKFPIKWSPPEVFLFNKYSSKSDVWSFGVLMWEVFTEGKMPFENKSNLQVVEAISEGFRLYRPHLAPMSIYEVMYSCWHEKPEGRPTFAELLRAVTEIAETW
Outline: as §1

PTK5(h) = PTK5(h) (Homo sapiens, UniProt P42685); format: biochemical
Sequence of PTK5(h) (P42685 whole entry): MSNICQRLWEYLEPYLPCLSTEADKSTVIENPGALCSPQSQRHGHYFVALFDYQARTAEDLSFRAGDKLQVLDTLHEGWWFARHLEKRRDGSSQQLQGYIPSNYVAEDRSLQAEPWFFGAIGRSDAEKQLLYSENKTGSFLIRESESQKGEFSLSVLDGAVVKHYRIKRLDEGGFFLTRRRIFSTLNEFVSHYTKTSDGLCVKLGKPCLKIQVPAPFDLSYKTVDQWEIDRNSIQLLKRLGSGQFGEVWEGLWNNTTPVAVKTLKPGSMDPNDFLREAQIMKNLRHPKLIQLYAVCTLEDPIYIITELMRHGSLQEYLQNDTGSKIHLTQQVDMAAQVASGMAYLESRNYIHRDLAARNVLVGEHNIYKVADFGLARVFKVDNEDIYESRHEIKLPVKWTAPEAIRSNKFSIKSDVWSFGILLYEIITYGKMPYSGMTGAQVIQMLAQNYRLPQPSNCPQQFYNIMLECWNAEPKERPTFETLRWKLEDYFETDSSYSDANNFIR
Outline: as §1

PKA(h) = PKA(h) (Homo sapiens, UniProt P17612); format: biochemical
Outline: as §1

PKCε(h) = PKCε(h) (Homo sapiens, UniProt Q02156); format: biochemical
Outline: as §1

Mnk2(h) = Mnk2(h) (Homo sapiens, UniProt Q9HBH9); format: biochemical
Sequence of Mnk2(h) (Q9HBH9 whole entry): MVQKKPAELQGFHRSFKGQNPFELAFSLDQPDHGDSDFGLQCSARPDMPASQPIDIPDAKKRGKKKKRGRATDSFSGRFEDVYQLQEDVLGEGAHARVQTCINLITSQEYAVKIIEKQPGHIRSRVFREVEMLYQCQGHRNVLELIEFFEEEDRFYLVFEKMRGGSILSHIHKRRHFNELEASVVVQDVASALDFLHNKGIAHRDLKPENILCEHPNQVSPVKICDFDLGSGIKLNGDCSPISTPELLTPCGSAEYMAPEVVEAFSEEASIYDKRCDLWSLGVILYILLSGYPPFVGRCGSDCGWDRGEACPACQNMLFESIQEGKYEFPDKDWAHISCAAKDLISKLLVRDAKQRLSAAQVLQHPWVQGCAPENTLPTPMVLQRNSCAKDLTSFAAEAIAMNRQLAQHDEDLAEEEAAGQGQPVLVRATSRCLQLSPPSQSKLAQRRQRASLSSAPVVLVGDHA
Outline: as §1

Rsk4(h) = Rsk4(h) (Homo sapiens, UniProt Q9UK32); format: biochemical
Outline: as §1

TAO3(h) = TAO3(h) (Homo sapiens, UniProt Q9H2K8); format: biochemical
Outline: as §1

PKCθ(h) = PKCθ(h) (Homo sapiens, UniProt Q04759); format: biochemical
Outline: as §1

PAK5(h) = PAK5(h) (Homo sapiens, UniProt Q9P286); format: biochemical
Outline: as §1

PKCβI(h) = PKCβI(h) (Homo sapiens, UniProt P05771); format: biochemical
Outline: as §1

Snk(h) = Snk(h) (Homo sapiens, UniProt Q9NYY3); format: biochemical
Outline: as §1

SGK3(h) = SGK3(h) (Homo sapiens, UniProt Q96BR1); format: biochemical
Outline: as §1

EphB2(h) = EphB2(h) (Homo sapiens, UniProt P29323); format: biochemical
Outline: as §1

DCAMKL2(h) = DCAMKL2(h) (Homo sapiens, UniProt Q8N568); format: biochemical
Outline: as §1

Axl(h) = Axl(h) (Homo sapiens, UniProt P30530); format: biochemical
Outline: as §1

CK2α2(h) = CK2α2(h) (Homo sapiens, UniProt P19784); format: biochemical
Outline: as §1

PKCι(h) = PKCι(h) (Homo sapiens, UniProt P41743); format: biochemical
Outline: as §1

Rsk3(h) = Rsk3(h) (Homo sapiens, UniProt Q15349); format: biochemical
Sequence of Rsk3(h) (Q15349 whole entry): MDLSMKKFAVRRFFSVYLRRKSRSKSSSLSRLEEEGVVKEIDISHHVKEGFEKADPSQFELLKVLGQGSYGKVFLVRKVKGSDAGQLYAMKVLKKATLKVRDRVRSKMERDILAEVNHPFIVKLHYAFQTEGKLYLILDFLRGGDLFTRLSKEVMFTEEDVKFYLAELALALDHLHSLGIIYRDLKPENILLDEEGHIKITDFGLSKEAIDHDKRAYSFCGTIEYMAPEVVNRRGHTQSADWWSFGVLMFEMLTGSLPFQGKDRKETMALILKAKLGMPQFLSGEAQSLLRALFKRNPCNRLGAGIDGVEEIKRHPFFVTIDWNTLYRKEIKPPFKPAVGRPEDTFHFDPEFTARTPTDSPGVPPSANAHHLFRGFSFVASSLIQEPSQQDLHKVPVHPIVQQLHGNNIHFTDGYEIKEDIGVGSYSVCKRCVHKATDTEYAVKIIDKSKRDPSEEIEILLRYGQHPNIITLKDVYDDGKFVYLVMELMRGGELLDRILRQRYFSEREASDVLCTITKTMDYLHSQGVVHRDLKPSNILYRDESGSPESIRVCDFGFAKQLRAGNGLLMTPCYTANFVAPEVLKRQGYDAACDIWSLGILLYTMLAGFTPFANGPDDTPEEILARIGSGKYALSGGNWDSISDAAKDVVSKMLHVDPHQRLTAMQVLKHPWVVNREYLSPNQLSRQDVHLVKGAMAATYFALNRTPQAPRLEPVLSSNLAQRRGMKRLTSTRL
Outline: as §1

NEK11(h) = NEK11(h) (Homo sapiens, UniProt Q8NG66); format: biochemical
Outline: as §1

Pyk2(h) = Pyk2(h) (Homo sapiens, UniProt Q14289); format: biochemical
Outline: as §1

Bmx(h) = Bmx(h) (Homo sapiens, UniProt P51813); format: biochemical
Sequence of Bmx(h) (P51813 whole entry): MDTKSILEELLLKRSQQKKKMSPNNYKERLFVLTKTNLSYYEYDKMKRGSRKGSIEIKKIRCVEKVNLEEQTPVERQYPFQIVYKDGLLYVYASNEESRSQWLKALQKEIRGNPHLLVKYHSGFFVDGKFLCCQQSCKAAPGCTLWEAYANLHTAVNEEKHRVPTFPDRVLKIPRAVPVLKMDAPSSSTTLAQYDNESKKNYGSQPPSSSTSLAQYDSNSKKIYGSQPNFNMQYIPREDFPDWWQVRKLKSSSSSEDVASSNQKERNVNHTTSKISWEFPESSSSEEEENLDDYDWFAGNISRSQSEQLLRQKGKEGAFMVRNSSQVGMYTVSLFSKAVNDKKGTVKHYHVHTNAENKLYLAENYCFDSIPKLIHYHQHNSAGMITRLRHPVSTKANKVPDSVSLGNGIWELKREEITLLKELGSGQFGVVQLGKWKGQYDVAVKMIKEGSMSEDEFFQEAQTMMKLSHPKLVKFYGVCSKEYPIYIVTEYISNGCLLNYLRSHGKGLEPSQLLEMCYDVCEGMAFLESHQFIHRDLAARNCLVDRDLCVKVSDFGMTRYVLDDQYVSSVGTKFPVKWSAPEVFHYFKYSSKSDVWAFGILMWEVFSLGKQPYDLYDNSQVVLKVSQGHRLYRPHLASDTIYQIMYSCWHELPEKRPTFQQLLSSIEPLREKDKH
Outline: as §1

Nc1n[nH]c2ccc(-c3ccnc4[nH]c(-c5cccc(OCc6ccccc6)c5)cc34)cc12 [Compound 5r [SU1261]]
% inhibition MLCK(h) (MLCK(h)): -10%
inhibition at 1 µM (VRK2(h)): -11%
inhibition at 1 µM (TSSK2(h)): -9%
inhibition at 1 µM (SAPK2a(h)): 0%
inhibition at 1 µM (ULK3(h)): 14%
inhibition at 1 µM (WNK2(h)): 22%
inhibition at 1 µM (Blk(h)): -4%
inhibition at 1 µM (MSSK1(h)): 13%
inhibition at 1 µM (Hck(h)): 16%
inhibition at 1 µM (CK1γ3(h)): 19%
inhibition at 1 µM (ASK1(h)): 23%
inhibition at 1 µM (GRK5(h)): 3%
inhibition at 1 µM (PKG1α(h)): 30%
inhibition at 1 µM (Rse(h)): 10%
inhibition at 1 µM (NLK(h)): 1%
inhibition at 1 µM (ULK2(h)): -4%
inhibition at 1 µM (MLK1(h)): 56%
inhibition at 1 µM (PhKγ2(h)): 21%
inhibition at 1 µM (MAPKAP-K3(h)): -1%
inhibition at 1 µM (Pim-2(h)): 5%
inhibition at 1 µM (ALK4(h)): 8%
inhibition at 1 µM (Txk(h)): 27%
inhibition at 1 µM (PTK5(h)): 29%
inhibition at 1 µM (PKA(h)): -6%
inhibition at 1 µM (PKCε(h)): 0%
inhibition at 1 µM (Mnk2(h)): 26%
inhibition at 1 µM (Rsk4(h)): 4%
inhibition at 1 µM (TAO3(h)): 4%
inhibition at 1 µM (PKCθ(h)): -14%
inhibition at 1 µM (PAK5(h)): 10%
inhibition at 1 µM (PKCβI(h)): -6%
inhibition at 1 µM (Snk(h)): -2%
inhibition at 1 µM (SGK3(h)): -27%
inhibition at 1 µM (EphB2(h)): -8%
inhibition at 1 µM (DCAMKL2(h)): 6%
inhibition at 1 µM (Axl(h)): 9%
inhibition at 1 µM (CK2α2(h)): 4%
inhibition at 1 µM (PKCι(h)): -10%
inhibition at 1 µM (Rsk3(h)): 27%
inhibition at 1 µM (NEK11(h)): -6%
inhibition at 1 µM (Pyk2(h)): 22%
inhibition at 1 µM (Bmx(h)): 17%

Nc1n[nH]c2ccc(-c3ccnc4[nH]c(-c5ccccc5)cc34)cc12 [Compound 4]
% inhibition MLCK(h) (MLCK(h)): 0%
inhibition at 1 µM (VRK2(h)): 0%
inhibition at 1 µM (TSSK2(h)): -9%
inhibition at 1 µM (SAPK2a(h)): -16%
inhibition at 1 µM (ULK3(h)): 48%
inhibition at 1 µM (WNK2(h)): 29%
inhibition at 1 µM (Blk(h)): 37%
inhibition at 1 µM (MSSK1(h)): 12%
inhibition at 1 µM (Hck(h)): 21%
inhibition at 1 µM (CK1γ3(h)): 29%
inhibition at 1 µM (ASK1(h)): 18%
inhibition at 1 µM (GRK5(h)): 5%
inhibition at 1 µM (PKG1α(h)): 29%
inhibition at 1 µM (Rse(h)): 30%
inhibition at 1 µM (NLK(h)): 51%
inhibition at 1 µM (ULK2(h)): 2%
inhibition at 1 µM (MLK1(h)): 79%
inhibition at 1 µM (PhKγ2(h)): 50%
inhibition at 1 µM (MAPKAP-K3(h)): 12%
inhibition at 1 µM (Pim-2(h)): 25%
inhibition at 1 µM (ALK4(h)): 25%
inhibition at 1 µM (Txk(h)): 43%
inhibition at 1 µM (PTK5(h)): 74%
inhibition at 1 µM (PKA(h)): 29%
inhibition at 1 µM (PKCε(h)): -14%
inhibition at 1 µM (Mnk2(h)): 67%
inhibition at 1 µM (Rsk4(h)): 17%
inhibition at 1 µM (TAO3(h)): 36%
inhibition at 1 µM (PKCθ(h)): 6%
inhibition at 1 µM (PAK5(h)): 16%
inhibition at 1 µM (PKCβI(h)): -2%
inhibition at 1 µM (Snk(h)): 1%
inhibition at 1 µM (SGK3(h)): -8%
inhibition at 1 µM (EphB2(h)): 12%
inhibition at 1 µM (DCAMKL2(h)): 33%
inhibition at 1 µM (Axl(h)): 55%
inhibition at 1 µM (CK2α2(h)): 5%
inhibition at 1 µM (PKCι(h)): 3%
inhibition at 1 µM (Rsk3(h)): 53%
inhibition at 1 µM (NEK11(h)): 4%
inhibition at 1 µM (Pyk2(h)): 63%
inhibition at 1 µM (Bmx(h)): 55%

Source: article PMC11314561, “Design and Synthesis of Novel Aminoindazole-pyrrolo[2,3-b]pyridine Inhibitors of IKKα That Selectively Perturb Cellular Non-Canonical NF-κB Signalling” (Molecules, 2024)
